The supplement of paper PMC10307832

What was measured:
Assay in all cases: relative viability (nuclei count vs DMSO), 5 days (fraction); higher = more cells survive
Dasatinib + Phenformin = compound: Cc1nc(Nc2ncc(C(=O)Nc3c(C)cccc3Cl)s2)cc(N2CCN(CCO)CC2)n1 [Dasatinib] + N=C(N)NC(=N)NCCc1ccccc1 [Phenformin] (partner 250 µM)
In short: (§1)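 Lung cancer cell lines in 1536-well plates were dosed by pin tool the day after seeding, either with one drug alone or with a fixed anchor-drug dose plus five library-drug doses (not always all listed) in √10 steps. After 5 days, cells were fixed and their nuclei stained in one step (final 0.05% Triton X-100, 1% formaldehyde, 1 ug/ml Hoechst), then counted on 4× images. Relative viability is the nuclei count in treated wells divided by that in vehicle wells. Values are medians of duplicate plates.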

ALW-II-49-7 + Lapatinib = compound: Cc1ccc(C(=O)Nc2cccc(C(F)(F)F)c2)cc1Nc1cncc(C(N)=O)c1 [ALW-II-49-7] + CS(=O)(=O)CCNCc1ccc(-c2ccc3ncnc(Nc4ccc(OCc5cccc(F)c5)c(Cl)c4)c3c2)o1 [Lapatinib] (partner 2 µM)
In short: as §1

XMD13-2 + Lapatinib = compound: C1CC1C(=O)NC2=NNC3=C2C=CC(=C3)C4=CC(=CC=C4)C(=O)NC5CC5 [XMD13-2] + CS(=O)(=O)CCNCc1ccc(-c2ccc3ncnc(Nc4ccc(OCc5cccc(F)c5)c(Cl)c4)c3c2)o1 [Lapatinib] (partner 2 µM)
In short: as §1

XMD13-2 + Olaparib = compound: C1CC1C(=O)NC2=NNC3=C2C=CC(=C3)C4=CC(=CC=C4)C(=O)NC5CC5 [XMD13-2] + O=C(c1cc(Cc2n[nH]c(=O)c3ccccc23)ccc1F)N1CCN(C(=O)C2CC2)CC1 [Olaparib] (partner 8 µM)
In short: as §1

| Cell Line | relative viability (Dasatinib + Phenformin; first compound 0.005 µM) | relative viability (Dasatinib + Phenformin; first compound 0.01581 µM) | relative viability (Dasatinib + Phenformin; first compound 0.05 µM) | relative viability (Dasatinib + Phenformin; first compound 0.1581 µM) | relative viability (Dasatinib + Phenformin; first compound 0.5 µM) | relative viability (ALW-II-49-7 + Lapatinib; first compound 0.08 µM) | relative viability (ALW-II-49-7 + Lapatinib; first compound 0.253 µM) | relative viability (ALW-II-49-7 + Lapatinib; first compound 0.8 µM) | relative viability (ALW-II-49-7 + Lapatinib; first compound 2.53 µM) | relative viability (ALW-II-49-7 + Lapatinib; first compound 8 µM) | relative viability (XMD13-2 + Lapatinib; first compound 0.05 µM) | relative viability (XMD13-2 + Lapatinib; first compound 0.1581 µM) | relative viability (XMD13-2 + Lapatinib; first compound 0.5 µM) | relative viability (XMD13-2 + Lapatinib; first compound 1.581 µM) | relative viability (XMD13-2 + Lapatinib; first compound 5 µM) | relative viability (XMD13-2 + Olaparib; first compound 0.05 µM) | relative viability (XMD13-2 + Olaparib; first compound 0.1581 µM) | relative viability (XMD13-2 + Olaparib; first compound 0.5 µM) | relative viability (XMD13-2 + Olaparib; first compound 1.581 µM) | relative viability (XMD13-2 + Olaparib; first compound 5 µM) |
| --- | --- | --- | --- | --- | --- | --- | --- | --- | --- | --- | --- | --- | --- | --- | --- | --- | --- | --- | --- | --- |
| NCI-H23 | 0.841 | 0.752 | 0.929 | 0.655 | 0.607 | 0.88 | 1.1 | 1.35 | 1.02 | 1.01 | 1.33 | 0.964 | 0.996 | 1.09 | 1.27 | 0.336 | 0.342 | 0.365 | 0.3 | 0.281 |
| NCI-H1355 | 0.435 | 0.391 | 0.432 | 0.352 | 0.325 | 0.959 | 1.13 | 0.97 | 1.02 | 0.934 | 1.13 | 0.942 | 1.05 | 0.997 | 1.06 | 0.755 | 0.716 | 0.807 | 0.762 | 0.773 |
| COR-L23 | 0.431 | 0.348 | 0.384 | 0.374 | 0.321 | 0.919 | 0.656 | 1.16 | 1.01 | 1.08 | 1.26 | 1.09 | 0.929 | 1.08 | 0.91 | 0.327 | 0.36 | 0.33 | 0.336 | 0.387 |
| A549 | 0.207 | 0.165 | 0.175 | 0.137 | 0.0717 | 0.958 | 1.03 | 1.01 | 1.05 | 0.978 | 1.2 | 0.974 | 0.938 | 0.811 | 0.891 | 0.415 | 0.185 | 0.453 | 0.358 | 0.437 |
| NCI-H2023 | 0.355 | 0.331 | 0.291 | 0.224 | 0.173 | 0.801 | 0.6 | 0.866 | 0.743 | 0.58 | 0.932 | 0.739 | 0.835 | 0.724 | 0.3 | 0.567 | 0.472 | 0.504 | 0.492 | 0.507 |
| A-427 | 0.326 | 0.262 | 0.277 | 0.266 | 0.225 | 0.988 | 1.13 | 1.06 | 1.07 | 0.969 | 1.1 | 1.01 | 1.1 | 1.01 | 1.05 | 0.814 | 0.688 | 0.728 | – | 0.485 |
| NCI-H1793 | 0.319 | 0.314 | 0.313 | 0.264 | 0.2 | 0.811 | 0.708 | 0.796 | 0.787 | 0.988 | 0.885 | 0.609 | 1.03 | 0.601 | 0.826 | 1.23 | 0.812 | 0.95 | 0.927 | 0.983 |
| NCI-H596 | 0.728 | 0.52 | 0.712 | 0.44 | 0.402 | 1.03 | 1.1 | 1.13 | 1.02 | 0.978 | 1.1 | 0.942 | 1.22 | 0.989 | 1.17 | 0.703 | 0.729 | 0.738 | 0.704 | 0.769 |
| LU99A | 0.845 | – | 0.888 | 0.752 | 0.472 | 1.03 | 0.919 | 0.739 | 1.12 | 0.999 | 1.21 | 0.975 | 1.02 | 0.858 | 0.42 | 0.288 | 0.277 | 0.248 | 0.273 | 0.263 |
| NCI-H2009 | 0.554 | 0.47 | 0.366 | 0.206 | 0.187 | 0.913 | 1.02 | 0.819 | 0.728 | 0.466 | 0.914 | 1.03 | 1.16 | 0.894 | 0.519 | 0.663 | 0.685 | 0.727 | 0.673 | 0.745 |
